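Following 48 hours of exposure in 96-well plates, responses at five concentrations were used to interpolate endpoints linearly. At the GI50, growth is halved. TGI: concentration producing complete growth inhibition.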
Key:
Assay in all cases: growth of human tumour cells (NCI), 48 h
[1] = tested on: UACC-62 melanoma
[2] = tested on: UO-31 renal
[3] = tested on: OVCAR-4 ovarian
[4] = tested on: RPMI-8226 leukemia
[5] = tested on: DU-145 prostate
[6] = tested on: SN12C renal
[7] = tested on: SNB-19 CNS
[8] = tested on: SK-MEL-5 melanoma
[9] = tested on: HT29 colon
[10] = tested on: SK-MEL-28 melanoma
[11] = tested on: OVCAR-8 ovarian
[12] = tested on: TK-10 renal
[13] = tested on: EKVX NSCLC
[14] = tested on: MCF7 breast
[15] = tested on: U251 CNS
[16] = tested on: 786-0 renal
[17] = tested on: RXF 393 renal
[18] = tested on: HOP-92 NSCLC
[19] = tested on: SW-620 colon
[20] = tested on: T-47D breast
[21] = tested on: NCI-H226 lung
[22] = tested on: SK-OV-3 ovarian
[23] = tested on: NCI/ADR-RES ovarian
[24] = tested on: UACC-257 melanoma
[25] = tested on: KM12 colon
[26] = tested on: A549 NSCLC
[27] = tested on: M14 melanoma
[28] = tested on: NCI-H460 lung
[29] = tested on: ACHN renal
[30] = tested on: NCI-H23 lung
[31] = tested on: A498 renal
[32] = tested on: SF-295 CNS
[33] = tested on: SF-268 CNS
[34] = tested on: PC-3 prostate
[35] = tested on: CAKI-1 renal
[36] = tested on: K-562 leukemia
[37] = tested on: HOP-62 NSCLC
[38] = tested on: BT-549 breast
[39] = tested on: CCRF-CEM leukemia
[40] = tested on: OVCAR-5 ovarian
[41] = tested on: HCT-15 colon
[42] = tested on: HCT-116 colon
[43] = tested on: MALME-3M melanoma
[44] = tested on: SF-539 CNS
[45] = tested on: IGROV1 ovarian
[46] = tested on: HL-60(TB) leukemia
[47] = tested on: LOX IMVI melanoma
[48] = tested on: SNB-75 CNS
[49] = tested on: OVCAR-3 ovarian
[50] = tested on: MDA-MB-231 breast
[51] = tested on: COLO 205 colon
[52] = tested on: NCI-H522 lung
[53] = tested on: SR leukemia
[54] = tested on: MDA-MB-435
[55] = tested on: HS 578T breast
[56] = tested on: HCC-2998 colon
[57] = tested on: MOLT-4 leukemia
[58] = tested on: SK-MEL-2 melanoma

Structure (SMILES): COc1ccccc1/C=C/C(=O)c1ccc(Nc2nc(Nc3ccc(F)cc3)nc(Nc3ccc(F)cc3)n2)cc1
- GI50 [1]: 55.5 µM
- TGI [1]: > 100 µM
- GI50 [2]: 9.52 µM
- TGI [2]: > 100 µM
- GI50 [3]: 65.3 µM
- TGI [3]: > 100 µM
- GI50 [4]: 3.03 µM
- TGI [4]: 16.3 µM
- GI50 [5]: 55.9 µM
- TGI [5]: > 100 µM
- GI50 [6]: 51.2 µM
- TGI [6]: > 100 µM
- GI50 [7]: 74.2 µM
- TGI [7]: > 100 µM
- GI50 [8]: 10.5 µM
- TGI [8]: 40 µM
- GI50 [9]: 15.8 µM
- TGI [9]: > 100 µM
- GI50 [10]: 33.6 µM
- TGI [10]: > 100 µM
- GI50 [11]: 9.4 µM
- TGI [11]: > 100 µM
- GI50 [12]: 48.6 µM
- TGI [12]: > 100 µM
- GI50 [13]: 38.1 µM
- TGI [13]: > 100 µM
- GI50 [14]: 5.45 µM
- TGI [14]: > 100 µM
- GI50 [15]: 9.8 µM
- TGI [15]: > 100 µM
- GI50 [16]: 2.85 µM
- TGI [16]: 14.9 µM
- GI50 [17]: 2.49 µM
- TGI [17]: 9.37 µM
- GI50 [18]: 7.24 µM
- TGI [18]: 46.5 µM
- GI50 [19]: 6.49 µM
- TGI [19]: > 100 µM
- GI50 [20]: 8.01 µM
- TGI [20]: > 100 µM
- GI50 [21]: 6.61 µM
- TGI [21]: > 100 µM
- GI50 [22]: 69.7 µM
- TGI [22]: > 100 µM
- GI50 [23]: 13 µM
- TGI [23]: > 100 µM
- GI50 [24]: 22 µM
- TGI [24]: 66.6 µM
- GI50 [25]: 7.67 µM
- TGI [25]: > 100 µM
- GI50 [26]: 10.9 µM
- TGI [26]: > 100 µM
- GI50 [27]: 25.5 µM
- TGI [27]: 86.7 µM
- GI50 [28]: 9.38 µM
- TGI [28]: > 100 µM
- GI50 [29]: 25.2 µM
- TGI [29]: > 100 µM
- GI50 [30]: 18.9 µM
- TGI [30]: > 100 µM
- GI50 [31]: 13.3 µM
- TGI [31]: 47.2 µM
- GI50 [32]: 14.4 µM
- TGI [32]: 98.5 µM
- GI50 [33]: 45.7 µM
- TGI [33]: > 100 µM
- GI50 [34]: 5.49 µM
- TGI [34]: > 100 µM
- GI50 [35]: > 100 µM
- TGI [35]: > 100 µM
- GI50 [36]: 9.94 µM
- TGI [36]: > 100 µM
- GI50 [37]: 16.3 µM
- TGI [37]: 77.6 µM
- GI50 [38]: 13.5 µM
- TGI [38]: > 100 µM
- GI50 [39]: 5.6 µM
- TGI [39]: > 100 µM
- GI50 [40]: 51.9 µM
- TGI [40]: > 100 µM
- GI50 [41]: 6.57 µM
- TGI [41]: > 100 µM
- GI50 [42]: 4.58 µM
- TGI [42]: > 100 µM
- GI50 [43]: 20.1 µM
- TGI [43]: 46.5 µM
- GI50 [44]: 1.73 µM
- TGI [44]: 17.6 µM
- GI50 [45]: 22.6 µM
- TGI [45]: > 100 µM
- GI50 [46]: 3.77 µM
- TGI [46]: > 100 µM
- GI50 [47]: 21.1 µM
- TGI [47]: > 100 µM
- GI50 [48]: 50.6 µM
- TGI [48]: > 100 µM
- GI50 [49]: 22.2 µM
- TGI [49]: > 100 µM
- GI50 [50]: 25.8 µM
- TGI [50]: > 100 µM
- GI50 [51]: 2.55 µM
- TGI [51]: 55.1 µM
- GI50 [52]: 23 µM
- TGI [52]: > 100 µM
- GI50 [53]: 4.34 µM
- TGI [53]: > 100 µM
- GI50 [54]: 19.4 µM
- TGI [54]: 90.7 µM
- GI50 [55]: 8.29 µM
- TGI [55]: 71.1 µM
- GI50 [56]: 25.2 µM
- TGI [56]: > 100 µM
- GI50 [57]: 6.13 µM
- TGI [57]: 97.8 µM
- GI50 [58]: 25.2 µM
- TGI [58]: > 100 µM

Source: PubChem BioAssay (NCI)
